Experimental data reported in patent US4179519A, “Method and composition for reducing serum lipid levels using p-chlorophenyl p-chlorophenoxyisobutyrate” (priority 1978, dated 1979).

How the values were obtained:
[1] = acute oral toxicity in rats, observed during 14 days; assay type: in vivo, Wistar EOPS rats; conditions: in vivo, rat, 2000 mg/kg
Description: (§1) The acute toxicity of the p-chlorophenyl ester of clofibric acid was determined using two species of animals (Swiss EOPS mice and Wistar EOPS rats) by oral administration, the product being administered in a gum preparation. The animals were observed during 14 days.

[2] = test system: serum and liver lipid levels; assay: hypolipidemic activity in rats on regimen rich in lipids, second set of experiments (Table II); assay type: in vivo, male Wistar EOPS rats
Description: (§2) The hypolipidemic activity was determined in rats subjected to a regimen rich in lipids over the course of 2 sets of experiments.
2. Male Wistar EOPS rats weighing in the neighborhood of 140 g receive a regimen rich in lipids during 21 days. Beginning with the eleventh day, the animals receive either a gum preparation containing the product to be tested or a preparation of 6% gum arabic alone, for 6 days out of 7. After the last feeding, and a subsequent 24 hour fast, the animals are sacrificed. A group of animals submitted to a normal regimen is used as a control. The percentage reductions of lipid levels are calculated using the following equation: [formula]

[3] = test system: serum and liver lipid levels; assay: hypolipidemic activity in rats on regimen rich in lipids, first set of experiments (Table I); assay type: in vivo, conventional male Wistar rats
Description: as §2
1. Conventional male Wistar rats weighing 130-150 g were maintained on a regimen rich in lipids for 21 days. At the same time, beginning with the fifteenth day of the regimen, they received a daily dose of either a gum preparation containing the product to be tested or a preparation of 6% gum arabic alone. After a fast of 24 hours, the animals were sacrificed, 22 days after the start of the regimen.

Wistar EOPS rats = assay: acute oral toxicity in rats, observed during 14 days; assay type: in vivo; conditions: rat, 2000 mg/kg
Description: as §1

Swiss EOPS mice = assay: acute oral toxicity in mice, observed during 14 days; assay type: in vivo; conditions: general statement
Description: as §1

[4] = as above; assay type: in vivo, Swiss EOPS mice; conditions: mouse, in vivo, po, 2000 mg/kg
Description: as §1

[5] = subchronic toxicity study, blood levels after one month oral administration (Table III); assay type: in vivo, male Wistar EOPS rats; design: bilirubin: unit not given here
Description: A subchronic toxicity study of the p-chlorophenyl ester of clofibric acid was carried out using the following protocol. The product was administered six days a week during the course of a month, by oral administration in a gum preparation, to male Wistar EOPS rats having an average initial weight of 200 g. After the last feeding, the animals were fasted. A blood sample is taken from the abdominal aorta under anesthesia, then the animals are sacrificed. […] The notation NS or S signifies whether the change induced by the product to be tested was statistically nonsignificant or significant.

[6] = 125 mg/kg/day, regimen rich in lipids
[7] = 200 mg/kg/day, regimen rich in lipids
[8] = second dose group, dose not given
[9] = 75 mg/kg/day, regimen rich in lipids

CC(C)(Oc1ccc(Cl)cc1)C(=O)O [clofibric acid, p-chlorophenoxyisobutyric acid, reference compound]
mortality at 336 h [1]: 40% | Wt. of liver / Wt of rat [2, 6]: 6.99 ± 0.75 | liver cholesterol level [2, 6]: 127.0 mg/g of liver | liver total lipids level [2, 6]: 382.7 mg/g of liver | liver triglycerides % reduction [2, 6]: 65% | liver triglycerides level [2, 6]: 20.33 mg/g of liver | serum cholesterol % reduction [2, 6]: 54% | serum cholesterol concentration [2, 6]: 2.31 g/L | serum total lipids % reduction [2, 6]: 46% | serum total lipids concentration [2, 6]: 4.97 ± 1.41 g/L | serum triglycerides concentration [2, 6]: 0.23 ± 0.04 g/L

CC(C)(Oc1ccc(Cl)cc1)C(=O)Oc1ccc(Cl)cc1 [p-chlorophenyl ester of clofibric acid, p-chlorophenyl 2-(p-chlorophenoxy)-2-methylpropionate]
significance of reductions in blood and liver levels ([3]; 200 mg/kg/day, Table I): significant | liver total lipids % reduction [3, 7]: 56% | liver total lipids level [3, 7]: 60.82 ± 26.98 mg/g of liver | serum cholesterol % reduction [3, 7]: 69% | serum cholesterol concentration [3, 7]: 1.33 ± 0.33 g/L | serum total lipids % reduction [3, 7]: 81% | serum total lipids concentration [3, 7]: 3.87 ± 0.65 g/L | hypolipidemic activity compared with clofibric acid and nicotinic acid ([3]; general statement, total serum lipid and serum cholesterol levels): significantly superior to that of both clofibric acid and nicotinic acid | mortality (Wistar EOPS rats): did not result in any mortality | toxicity (Swiss EOPS mice): very low toxicity | mortality at 336 h [4]: 10% | alkaline phosphatase ([5]; 100 mg/kg/day): 25.0 ± 4.9 mU/ml | bilirubin ([5]; 100 mg/kg/day): 3.68 ± 0.73 | cholesterol ([5]; 100 mg/kg/day): 0.47 ± 0.04 g/L | glycemia ([5]; 100 mg/kg/day): 1.58 ± 0.15 g/L | total lipids ([5]; 100 mg/kg/day): 2.92 ± 0.54 g/L | triglycerides ([5]; 100 mg/kg/day): 0.83 ± 0.27 g/L | urea ([5]; 100 mg/kg/day): 0.42 ± 0.07 g/L | alkaline phosphatase ([5]; 500 mg/kg/day): 38.4 ± 9.9 mU/ml | bilirubin ([5]; 500 mg/kg/day): 5.04 ± 1.09 | cholesterol ([5]; 500 mg/kg/day): 0.32 ± 0.06 g/L | glycemia ([5]; 500 mg/kg/day): 1.41 ± 0.26 g/L | total lipids ([5]; 500 mg/kg/day): 2.77 ± 0.42 g/L | triglycerides ([5]; 500 mg/kg/day): 1.09 ± 0.33 g/L | urea ([5]; 500 mg/kg/day): 0.40 ± 0.05 g/L | alkaline phosphatase [5, 8]: 33.5± 7.8 mU/ml | bilirubin [5, 8]: 4.82 ± 1.85 | cholesterol [5, 8]: 0.37 ± 0.07 g/L | glycemia [5, 8]: 1.57 ± 0.15 g/L | total lipids [5, 8]: 2.54 ± 0.35 g/L | triglycerides [5, 8]: 0.74 ± 0.1 g/L | urea [5, 8]: 0.34 ± 0.07 g/L | Wt. of liver / Wt of rat [2, 9]: 6.08 ± 0.31 | liver cholesterol level [2, 9]: 123.0 mg/g of liver | liver total lipids level [2, 9]: 323.9 mg/g of liver | liver triglycerides % reduction [2, 9]: 48% | liver triglycerides level [2, 9]: 23.37 mg/g of liver | serum cholesterol % reduction [2, 9]: 32% | serum cholesterol concentration [2, 9]: 3.06 g/L | serum total lipids % reduction [2, 9]: 34% | serum total lipids concentration [2, 9]: 5.56 ± 2.83 g/L | serum triglycerides concentration [2, 9]: 0.39 ± 0.06 g/L | Wt. of liver / Wt of rat [2, 6]: 6.36 ± 0.31 | liver cholesterol level [2, 6]: 136.5 mg/g of liver | liver total lipids level [2, 6]: 361.9 mg/g of liver | liver triglycerides % reduction [2, 6]: 62% | liver triglycerides level [2, 6]: 20.84 mg/g of liver | serum cholesterol % reduction [2, 6]: 69% | serum cholesterol concentration [2, 6]: 1.79 g/L | serum total lipids % reduction [2, 6]: 74% | serum total lipids concentration [2, 6]: 3.55 ± 0.77 g/L | serum triglycerides concentration [2, 6]: 0.35 ± 0.06 g/L | Wt. of liver / Wt of rat [2, 7]: 6.70 ± 0.50 | liver cholesterol level [2, 7]: 135.2 mg/g of liver | liver total lipids level [2, 7]: 382.0 mg/g of liver | liver triglycerides % reduction [2, 7]: 89% | liver triglycerides level [2, 7]: 16.20 mg/g of liver | serum cholesterol % reduction [2, 7]: 67% | serum cholesterol concentration [2, 7]: 1.84 g/L | serum total lipids % reduction [2, 7]: 69% | serum total lipids concentration [2, 7]: 3.81 ± 0.97 g/L | serum triglycerides concentration [2, 7]: 0.22 ± 0.06 g/L | reduction of serum lipid and cholesterol levels compared with the acid ([2]; at equal dosage levels, vs clofibric acid): reduces serum lipid and cholesterol levels to a greater degree than the acid | increase in liver weight compared with the acid ([2]; at equivalent dosage levels, vs clofibric acid): smaller than when the acid is used, and this difference is statistically significant | weight of the animals' livers ([2]; regimen rich in lipids): increases
